EPA's ToxValDB 9.5 (doi:10.2903/j.efsa.2018.5252)

Experiments:
Apis mellifera = conditions: acute, mortality
Bibionidae = conditions: chronic/long-term
Canidae = conditions: subchronic; duration: 90 days; oral; M/F; Dog Other; body weight
Cyprinus carpio = conditions: acute; duration: 96 hours; mortality
Oryctolagus sp. = conditions: reproduction developmental; body weight
Pimephales promelas = conditions: chronic/long-term; duration: 110 days; reproduction
Tagia sp. = conditions: chronic/long-term; growth
Aphidius rhopalosiphi = assay: LR50; higher = less toxic; conditions: not reported; mortality

`CC[C@H]1CCC[C@H](O[C@H]2CC[C@H](N(C)C)[C@@H](C)O2)[C@@H](C)C(=O)C2=C[C@@H]3[C@@H](C=C(C)[C@@H]4C[C@@H](O[C@@H]5O[C@@H](C)[C@H](OC)[C@@H](OC)[C@H]5OC)C[C@@H]34)[C@@H]2CC(=O)O1.CC[C@H]1CCC[C@H](O[C@H]2CC[C@H](N(C)C)[C@@H](C)O2)[C@@H](C)C(=O)C2=C[C@@H]3[C@@H](C=C[C@@H]4C[C@@H](O[C@@H]5O[C@@H](C)[C@H](OC)[C@@H](OC)[C@H]5OC)C[C@@H]34)[C@@H]2CC(=O)O1` [Spinosad] was tested, and the LD50 (Anas platyrhynchos; acute, oral, unspecified, mortality) was over 2000 mg/kg-day, the NOAEL (Anas platyrhynchos; chronic/long-term) was 78.1 mg/kg-day and the LEL (Anas platyrhynchos; chronic/long-term, mortality) was 200 mg/kg-day. It also gave an LD50 (Apis mellifera; dermal) of 0.0036 µg/piece, an LD50 (Apis mellifera; oral, unspecified) of 0.057 µg/piece and an NOEC (Bibionidae; duration: 25 days) of 0.62 µg/L. It also gave an NOEC (Bibionidae; duration: 28 days) of 0.0585 mg/kg, an NOAEL (Canidae) of 4.89 mg/kg-day and an LD50 (Colinus virginianus; acute, oral, mortality) of over 2000 mg/kg-day. It also gave an NOAEL (Colinus virginianus; chronic) of 68.5 mg/kg-day, an LEL (Colinus virginianus; chronic, mortality) of 200 mg/kg-day and an LC50 (Cyprinus carpio) of 4 µg/mL. It also gave an NOAEL (Oryctolagus sp.) of 10 mg/kg-day, an NOEC (Pimephales promelas) of 0.217 mg/L and an LD50 (Rattus norvegicus; acute, oral, mortality) of over 2000 mg/kg-day. It also gave an NOAEL (Rattus norvegicus; chronic, duration: 2 years, oral, diet, M, Fischer 344, organ weight) of 2.4 mg/kg-day, an NOAEL (Rattus norvegicus; reproduction developmental, M/F, reproduction) of 10 mg/kg-day and an NOEC (Tagia sp.) of 35.2 mg/kg. The LR50 (Aphidius rhopalosiphi) was 0.371 g/ha.
